Laboratory results from patent US12077503B2, “Substituted cyclic amides and their use as herbicides” (FMC CORPORATION, priority 2015, dated 2024).

Columns and labels:
Type in all cases: in vivo
[1] = test system: barnyardgrass (Echinochloa crus-galli); experiment: Test A preemergence; settings: for Plant response rating, Barnyardgrass: 125 g ai/ha; for Barnyardgrass plant response rating (0 to 100 scale, 0 is no effect, 100 is complete control): visual injury approx. 10 d
Outline: (§1)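 Seeded soil received test chemicals as a preemergence directed spray, and seedlings at one to two leaves, 2–10 cm tall, received them postemergence, in a non-phytotoxic, surfactant-containing solvent mixture. Pots were held in a greenhouse for approximately 10 d, then rated for injury from 0, no effect, to 100, complete control.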

[2] = test system: ryegrass, Italian (Italian ryegrass, Lolium multiflorum); experiment: Test A preemergence; settings: for Plant response rating, Ryegrass, Italian: 125 g ai/ha; for Ryegrass, Italian plant response rating (0 to 100 scale, 0 is no effect, 100 is complete control): visual injury approx. 10 d
Outline: as §1

[3] = test system: giant foxtail (Setaria faberii); experiment: Test A preemergence; settings: for Plant response rating, Foxtail, Giant: 125 g ai/ha; for Foxtail, Giant plant response rating (0 to 100 scale, 0 is no effect, 100 is complete control): visual injury approx. 10 d
Outline: as §1

[4] = test system: pigweed (Amaranthus retroflexus); experiment: Test A preemergence; settings: for Plant response rating, Pigweed: 125 g ai/ha; for Pigweed plant response rating (0 to 100 scale, 0 is no effect, 100 is complete control): visual injury approx. 10 d
[5] = test system: ragweed (common ragweed, Ambrosia elatior); experiment: Test A preemergence; settings: for Plant response rating, Ragweed: 125 g ai/ha; for Ragweed plant response rating (0 to 100 scale, 0 is no effect, 100 is complete control): visual injury approx. 10 d
Outline: as §1

Kochia (Kochia scoparia) [6] = experiment: Test A preemergence; settings: for Plant response rating, Kochia: 125 g ai/ha; for Kochia plant response rating (0 to 100 scale, 0 is no effect, 100 is complete control): visual injury approx. 10 d
Outline: as §1

[7] = test system: Galium (catchweed bedstraw, Galium aparine); experiment: Test A postemergence; settings: for Galium plant response rating: visual injury rating on 0 to 100 scale (0 no effect, 100 complete control), approx. 10 d
Outline: as §1

[8] = test system: barnyardgrass (Echinochloa crus-galli); experiment: Test A postemergence
Outline: as §1

[9] = test system: ryegrass, Italian (Italian ryegrass, Lolium multiflorum); experiment: Test A postemergence; settings: for Ryegrass, Italian plant response rating: visual injury rating on 0 to 100 scale (0 no effect, 100 complete control), approx. 10 d
Outline: as §1

[10] = test system: giant foxtail (Setaria faberii); experiment: Test A postemergence; settings: for Foxtail, Giant plant response rating: visual injury rating on 0 to 100 scale (0 no effect, 100 complete control), approx. 10 d
Outline: as §1

[11] = test system: pigweed (Amaranthus retroflexus); experiment: Test A postemergence; settings: for Pigweed plant response rating: visual injury rating on 0 to 100 scale (0 no effect, 100 complete control), approx. 10 d
Outline: as §1

[12] = test system: ragweed (common ragweed, Ambrosia elatior); experiment: Test A postemergence; settings: for Ragweed plant response rating: visual injury rating on 0 to 100 scale (0 no effect, 100 complete control), approx. 10 d
Outline: as §1

corn (Zea mays) = experiment: Test A postemergence; settings: for Corn plant response rating: visual injury rating on 0 to 100 scale (0 no effect, 100 complete control), approx. 10 d
Outline: as §1

Kochia (Kochia scoparia) [13] = experiment: Test A postemergence; settings: for Kochia plant response rating: visual injury rating on 0 to 100 scale (0 no effect, 100 complete control), approx. 10 d
Outline: as §1

[14] = test system: wheat (Triticum aestivum); experiment: Test A postemergence; settings: for Wheat plant response rating: visual injury rating on 0 to 100 scale (0 no effect, 100 complete control), approx. 10 d
Outline: as §1

[15] = test system: blackgrass (Alopecurus myosuroides); experiment: Test A postemergence
Outline: as §1

[16] = test system: ducksalad (Heteranthera limosa); experiment: Test B flooded paddy test; settings: Flood, 0 to 100 scale where 0 is no effect and 100 is complete control, 13 to 15 d
Outline: (§2)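 2-leaf plants; pots flooded 3 cm over soil; cpd added to paddy water; depth held; greenhouse 13–15 d; visual rating vs controls, 0 = no effect, 100 = complete control.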

[17] = test system: barnyardgrass (Echinochloa crus-galli); experiment: Test B flooded paddy test; settings: Flood, 0 to 100 scale where 0 is no effect and 100 is complete control, 13 to 15 d
Outline: as §2

[18] = test system: sedge, umbrella (small-flower umbrella sedge, Cyperus difformis); experiment: Test B flooded paddy test; settings: Flood, 0 to 100 scale where 0 is no effect and 100 is complete control, 13 to 15 d
Outline: as §2

rice (Oryra sativa) = experiment: Test B flooded paddy test; settings: Flood, 0 to 100 scale where 0 is no effect and 100 is complete control, 13 to 15 d
Outline: as §2

[19] = Preemergence, visual injury after approximately 10 d, 0 to 100 scale where 0 is no effect and 100 is complete control
[20] = Postemergence, 500 g ai/ha, 0 to 100 scale where 0 is no effect and 100 is complete control
[21] = 125 g ai/ha, postemergence, visual injury rating on 0 to 100 scale (0 no effect, 100 complete control), approx. 10 d
[22] = preemergence, 0 to 100 scale (0 no effect, 100 complete control)
[23] = Preemergence, 500 g ai/ha, 0 is no effect, 100 is complete control
[24] = 500 g ai/ha, postemergence, 0 to 100 scale, 0 no effect, 100 complete control
[25] = Postemergence, 125 g ai/ha, visual injury, 0 to 100 scale (0 no effect, 100 complete control), approx. 10 d
[26] = 125 g ai/ha, postemergence, visual rating after approx. 10 d, 0 to 100 scale (0 no effect, 100 complete control)

COCc1cccc(C2CNC(=O)C2C(=O)Nc2cccc(F)c2F)c1 (stereo not drawn) [Compound 497]
Plant response rating, Barnyardgrass [1, 19]: 90
Barnyardgrass plant response rating (0 to 100 scale, 0 is no effect, 100 is complete control) ([1]; Preemergence, 500 g ai/ha): 90
Plant response rating, Ryegrass, Italian [2, 19]: 0
Ryegrass, Italian plant response rating (0 to 100 scale, 0 is no effect, 100 is complete control) ([2]; Preemergence, 500 g ai/ha): 30
Plant response rating, Foxtail, Giant [3, 19]: 90
Foxtail, Giant plant response rating (0 to 100 scale, 0 is no effect, 100 is complete control) ([3]; Preemergence, 500 g ai/ha): 90
Plant response rating, Pigweed [4, 19]: 30
Pigweed plant response rating (0 to 100 scale, 0 is no effect, 100 is complete control) ([4]; Preemergence, 500 g ai/ha): 20
Plant response rating, Ragweed [5, 19]: 0
Ragweed plant response rating (0 to 100 scale, 0 is no effect, 100 is complete control) ([5]; Preemergence, 500 g ai/ha): 0
Plant response rating, Kochia (Kochia (Kochia scoparia) [6]; [19]): 20
Kochia plant response rating (0 to 100 scale, 0 is no effect, 100 is complete control) (Kochia (Kochia scoparia) [6]; Preemergence, 500 g ai/ha): 50
Galium plant response rating ([7]; 125 g ai/ha, postemergence): 0
Plant response rating, Galium [7, 20]: 50
Barnyardgrass plant response rating [8, 21]: 60
Plant response rating, Barnyardgrass [8, 20]: 80
Ryegrass, Italian plant response rating ([9]; 125 g ai/ha, postemergence): 0
Plant response rating, Ryegrass, Italian [9, 20]: 20
Foxtail, Giant plant response rating ([10]; 125 g ai/ha, postemergence): 20
Plant response rating, Foxtail, Giant [10, 20]: 50
Pigweed plant response rating ([11]; 125 g ai/ha, postemergence): 0
Plant response rating, Pigweed [11, 20]: 0
Ragweed plant response rating ([12]; 125 g ai/ha, postemergence): 0
Plant response rating, Ragweed [12, 20]: 0
Corn plant response rating (corn (Zea mays); 125 g ai/ha, postemergence): 0
Plant response rating, Corn (corn (Zea mays); [20]): 40
Kochia plant response rating (Kochia (Kochia scoparia) [13]; 125 g ai/ha, postemergence): 30
Plant response rating, Kochia (Kochia (Kochia scoparia) [13]; [20]): 30
Wheat plant response rating ([14]; 125 g ai/ha, postemergence): 0
Plant response rating, Wheat [14, 20]: 40
Blackgrass plant response rating [15, 21]: 30
Plant response rating, Blackgrass [15, 20]: 30
Plant response rating, Ducksalad ([16]; 250 g ai/ha): 90
Plant response rating, Barnyardgrass ([17]; 250 g ai/ha): 70
Plant response rating, Sedge, Umbrella ([18]; 250 g ai/ha): 0
Plant response rating, Rice (rice (Oryra sativa); 250 g ai/ha): 20

O=C1NCC(c2cccc(OCC(F)F)c2)C1C(=O)Nc1cccc(F)c1F (stereo not drawn) [Compound 389]
Plant response rating, Barnyardgrass [1, 22]: 70
Barnyardgrass plant response rating (0 to 100 scale) [1, 23]: 70
Plant response rating, Ryegrass, Italian [2, 22]: 0
Ryegrass, Italian plant response rating (0 to 100 scale) [2, 23]: 0
Plant response rating, Foxtail, Giant [3, 22]: 80
Foxtail, Giant plant response rating (0 to 100 scale) [3, 23]: 90
Plant response rating, Pigweed [4, 22]: 0
Pigweed plant response rating (0 to 100 scale) [4, 23]: 0
Plant response rating, Ragweed [5, 22]: 0
Ragweed plant response rating (0 to 100 scale) [5, 23]: 0
Plant response rating, Kochia (Kochia (Kochia scoparia) [6]; [22]): 0
Kochia plant response rating (0 to 100 scale) (Kochia (Kochia scoparia) [6]; [23]): 0
Galium plant response rating ([7]; 125 g ai/ha, postemergence): 0
Plant response rating, Galium [7, 24]: 0
Plant response rating, Barnyardgrass [8, 24]: 70
Plant response rating, Barnyardgrass [8, 25]: 50
Ryegrass, Italian plant response rating ([9]; 125 g ai/ha, postemergence): 0
Plant response rating, Ryegrass, Italian [9, 24]: 0
Foxtail, Giant plant response rating ([10]; 125 g ai/ha, postemergence): 60
Plant response rating, Foxtail, Giant [10, 24]: 70
Pigweed plant response rating ([11]; 125 g ai/ha, postemergence): 0
Plant response rating, Pigweed [11, 24]: 20
Ragweed plant response rating ([12]; 125 g ai/ha, postemergence): 0
Plant response rating, Ragweed [12, 24]: 0
Corn plant response rating (corn (Zea mays); 125 g ai/ha, postemergence): 30
Plant response rating, Corn (corn (Zea mays); [24]): 50
Kochia plant response rating (Kochia (Kochia scoparia) [13]; 125 g ai/ha, postemergence): 0
Plant response rating, Kochia (Kochia (Kochia scoparia) [13]; [24]): 0
Wheat plant response rating ([14]; 125 g ai/ha, postemergence): 0
Plant response rating, Wheat [14, 24]: 0
Plant response rating, Blackgrass [15, 24]: 0
Plant response rating, Blackgrass [15, 25]: 0
Plant response rating, Ducksalad ([16]; 500 g ai/ha): 100
Plant response rating, Barnyardgrass ([17]; 500 g ai/ha): 60
Plant response rating, Sedge, Umbrella ([18]; 500 g ai/ha): 0
Plant response rating, Rice (rice (Oryra sativa); 500 g ai/ha): 15

O=C1NCC(c2ccsc2Cl)C1C(=O)Nc1cccc(F)c1F (stereo not drawn) [Compound 600]
Plant response rating, Barnyardgrass [1, 19]: 30
Barnyardgrass plant response rating (0 to 100 scale, 0 is no effect, 100 is complete control) ([1]; Preemergence, 500 g ai/ha): 90
Plant response rating, Ryegrass, Italian [2, 19]: 0
Ryegrass, Italian plant response rating (0 to 100 scale, 0 is no effect, 100 is complete control) ([2]; Preemergence, 500 g ai/ha): 0
Plant response rating, Foxtail, Giant [3, 19]: 30
Foxtail, Giant plant response rating (0 to 100 scale, 0 is no effect, 100 is complete control) ([3]; Preemergence, 500 g ai/ha): 90
Plant response rating, Pigweed [4, 19]: 0
Pigweed plant response rating (0 to 100 scale, 0 is no effect, 100 is complete control) ([4]; Preemergence, 500 g ai/ha): 0
Plant response rating, Ragweed [5, 19]: 0
Ragweed plant response rating (0 to 100 scale, 0 is no effect, 100 is complete control) ([5]; Preemergence, 500 g ai/ha): 0
Plant response rating, Kochia (Kochia (Kochia scoparia) [6]; [19]): 0
Kochia plant response rating (0 to 100 scale, 0 is no effect, 100 is complete control) (Kochia (Kochia scoparia) [6]; Preemergence, 500 g ai/ha): 20
Plant response rating, Galium [7, 26]: 0
Plant response rating, Galium [7, 20]: 0
Plant response rating, Barnyardgrass [8, 26]: 0
Plant response rating, Barnyardgrass [8, 20]: 90
Plant response rating, Ryegrass, Italian [9, 26]: 0
Plant response rating, Ryegrass, Italian [9, 20]: 0
Plant response rating, Foxtail, Giant [10, 26]: 0
Plant response rating, Foxtail, Giant [10, 20]: 30
Plant response rating, Pigweed [11, 26]: 0
Plant response rating, Pigweed [11, 20]: 0
Plant response rating, Ragweed [12, 26]: 0
Plant response rating, Ragweed [12, 20]: 0
Plant response rating, Corn (corn (Zea mays); [26]): 0
Plant response rating, Corn (corn (Zea mays); [20]): 0
Plant response rating, Kochia (Kochia (Kochia scoparia) [13]; [26]): 0
Plant response rating, Kochia (Kochia (Kochia scoparia) [13]; [20]): 0
Plant response rating, Wheat [14, 26]: 0
Plant response rating, Wheat [14, 20]: 0
Plant response rating, Blackgrass [15, 26]: 0
Plant response rating, Blackgrass [15, 20]: 0
Plant response rating, Ducksalad ([16]; 250 g ai/ha): 85
Plant response rating, Barnyardgrass ([17]; 250 g ai/ha): 0
Plant response rating, Sedge, Umbrella ([18]; 250 g ai/ha): 0
Plant response rating, Rice (rice (Oryra sativa); 250 g ai/ha): 15
